The source of these data is paper PMC10388327, “Dual Piperidine-Based Histamine H3 and Sigma-1 Receptor Ligands in the Treatment of Nociceptive and Neuropathic Pain” (Journal of Medicinal Chemistry, 2023).

Structures can show the parent of a compound that is named as a salt. Where two headings read alike, the source gives them in different places.

Data set [1] in a line: parallel artificial membrane permeability assay (PAMPA). It is filed as in vitro ADME. As to conditions: 100 μM in PBS pH 7.4, RT, read-out: Pe (permeability coefficient). In general terms: In PAMPA a lipid-coated filter parts donor from acceptor wells.
Data set [2] concerns sigma-1 receptor (σ1R). As to the kind of experiment: σ1R radioligand binding ([3H](+)-pentazocine). The arrangement: species or system guinea pig. Particulars: ratio of σ2R Ki to σ1R Ki.
In data set [3] the target is T1, sigma-1 receptor (σ1R) (Cavia porcellus, UniProt Q60492).
T1 construct: The thawed membrane preparation of the guinea pig brain cortex was incubated; from tissue; host or cells: male Dunkin-Hartley guinea pig brain cortex membranes
In words: σ1R radioligand binding ([3H](+)-pentazocine). The arrangement: species or system guinea pig. Particulars: read-out: σ1R Ki [nM] x̄ [CI 95%]; mean [CI 95%].

In the next data set the target is T2, sigma-2 receptor (σ2R) (Rattus norvegicus, UniProt Q5U3Y7).
T2 construct: The thawed membrane preparation of rat liver was incubated; from tissue; host or cells: Sprague-Dawley rat liver membranes
T2 sequence (Q5U3Y7 1-176): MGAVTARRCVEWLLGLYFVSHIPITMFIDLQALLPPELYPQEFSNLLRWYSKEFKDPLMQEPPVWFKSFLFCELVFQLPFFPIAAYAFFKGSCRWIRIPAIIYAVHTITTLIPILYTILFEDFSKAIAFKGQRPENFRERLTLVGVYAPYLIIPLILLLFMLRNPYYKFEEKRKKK
In words: σ2R radioligand binding ([3H]DTG). Particulars: read-out: σ2R Ki [nM] x̄ [CI 95%]; mean [CI 95%].

The target in data set [4] is T3, human recombinant histamine H3R (Homo sapiens, UniProt Q9Y5N1).
T3 construct: expressed in transfected cells
In words: hH3R radioligand binding ([3H]Nα-methylhistamine depletion assay). Particulars: read-out: hH3R Ki [nM] x̄ [CI 95%]; mean [CI 95%]; HEK-293 cells.

A short description of data set [5]: pKa determination by potentiometric titration. It is filed as physicochemical. Particulars: for pKa: aqueous solution, experimental, potentiometric titration. As for the experimental part: In addition, we tested the amino alcohol fragments of these compounds to carefully monitor the influence of individual protonated nitrogen atoms on the obtained pKa values (Figure 4). […] Based on a previously modified potentiometric procedure,[27],[28] a series of titrations were performed, and the pKa values were determined using the Kostrowicki and Liwo algorithm.[29],[30] […] That explains the surprising result of free base crystallization attempts where iodide salt was obtained instead of the neutral form. On the other hand, in the same environment, KSK94 exists in two forms: the monoprotonated form [HL^+] (20.56%) and the free ligand [L] (77.72%, Figure 5). […] KSK68 can be characterized as a basic ligand with pKa1 = 4.9 (pyridine N) and pKa2 = 8.4 (piperidine N). The pKa values are consistent with those determined by the same procedure for the corresponding amino alcohol 3-(4-(pyridin-4-yl)piperidin-1-yl)propan-1-ol (Figure 4). […] A similarly low pKa2 value for the N7 piperazine nitrogen atom was also determined for the corresponding amino alcohol 3-(4-(pyridin-4-yl)piperazin-1-yl)propan-1-ol (Figure 4), which is in agreement with the value obtained for 1-phenyl-4-methyl piperazine reported in the literature.[31] […] The lowest value was determined for 4-nitrophenyl, and the highest was for 2-methylphenyl derivatives.[32]
The potentiometric microtitration was performed in a thermostated 20 mL cell using a CerkoLab microtitration unit fitted with a pH electrode (Hydromet ERH-13-6). The electrode was calibrated with the use of buffer solutions: pH = 4.00, 7.00, and 10.00. Titrant T (0.1 M KOH) was standardized according to the general analytical procedure and protected from carbon dioxide. Double distilled water with a conductivity of about 0.18 mS/cm was used to prepare all aqueous solutions. DMSO (HPLC grade, 99.5%) was supplied by Sigma Aldrich. The concentration of the titrant solution (D) was 0.0025–0.005 M. The solubilization procedure was follows: The appropriate amount of KSK compound was dissolved in 1 mL 0.1 M HCl and 1 mL DMSO to prepare a 25 mL stock solution. The developed solubilization system can be recommended for poorly soluble derivatives. The analytical procedure was a follows: volume V0 = 4.5 mL of titrant D was titrated with 0.1 M titrant T using the CerkoLab System equipped with a 5 mL syringe pump.

A further data set deals with mice. In words: loperamide-induced antinociception (paw pressure, struggle response latency). It is filed as in vivo, Female CD1 mice. Particulars: for reversal of potentiation of loperamide-induced antinociception by S1RA and 12: PRE-084 75 μg i.pl., naloxone-methiodide 2 mg/kg s.c.
Where [6] appears, read: Figure 5, species distribution from titration curves.
[7] abbreviates: aqueous solution at physiological pH.

T1 sequence (Q60492 whole entry): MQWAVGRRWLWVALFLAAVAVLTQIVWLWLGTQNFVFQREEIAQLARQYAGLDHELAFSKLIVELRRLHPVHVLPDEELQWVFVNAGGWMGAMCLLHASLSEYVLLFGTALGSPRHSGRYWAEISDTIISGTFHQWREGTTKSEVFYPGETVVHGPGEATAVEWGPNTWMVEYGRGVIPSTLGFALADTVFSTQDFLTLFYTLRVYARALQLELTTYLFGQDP
T3 sequence (Q9Y5N1 whole entry): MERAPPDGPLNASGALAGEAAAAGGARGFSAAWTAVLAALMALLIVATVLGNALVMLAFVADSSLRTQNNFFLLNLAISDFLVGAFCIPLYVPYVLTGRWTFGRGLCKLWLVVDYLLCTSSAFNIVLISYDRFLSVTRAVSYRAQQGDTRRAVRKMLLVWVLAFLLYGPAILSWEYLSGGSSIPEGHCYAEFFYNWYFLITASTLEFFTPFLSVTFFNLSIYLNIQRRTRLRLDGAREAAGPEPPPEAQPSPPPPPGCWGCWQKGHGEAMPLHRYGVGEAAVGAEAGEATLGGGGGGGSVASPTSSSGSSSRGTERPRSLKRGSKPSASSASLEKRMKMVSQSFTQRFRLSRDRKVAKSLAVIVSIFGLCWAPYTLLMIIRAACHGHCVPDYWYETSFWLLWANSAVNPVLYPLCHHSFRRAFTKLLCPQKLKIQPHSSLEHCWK

As for `CCN1CCCC1CNC(=O)c1cc(S(N)(=O)=O)ccc1OC` (stereo not drawn) [sulpiride, reference compound], the Papp at 5 h, 100 µM in data set [1] was 0.05 ×10⁻⁶ cm/s.
As for `c1ccc(Oc2ccc(OCCCN3CCC(c4ccncc4)CC3)cc2)cc1` [Compound 13, 4-(1-(3-(4-Phenoxyphenoxy)propyl)piperidin-4-yl)pyridine Oxalate], in the data set with sigma-1 receptor (σ1R) [2], the σ2/σ1 ratio is on record as 0.7. Moreover, the results for the Ki (on sigma-1 receptor (σ1R) [3]; on sigma-2 receptor (σ2R); in data set [4]) were 5.6 nM, 4 nM and 24.2 nM, respectively.
Take `OCCCN1CCNCC1` [3-(piperazin-1-yl)propan-1-ol, reference compound]: the pKa in data set [5] (read-out: pKa1) is 4.52; in data set [5] (read-out: pKa2) it was 9.14.
On to `CC1CCCN(CCCOc2ccc(-c3ccccc3)cc2)C1` (stereo not drawn) [Compound 1, 1-(3-([1,1′-Biphenyl]-4-yloxy)propyl)-3-methylpiperidine Oxalate], for which, in the data set on sigma-1 receptor (σ1R) [2], the σ2/σ1 ratio is listed as 11.3. Moreover, the Ki – broadly, the equilibrium dissociation constant of an inhibitor or competing ligand from its target – was determined as 1.5 nM at sigma-1 receptor (σ1R) [3], 17 nM on sigma-2 receptor (σ2R) and 31 nM in data set [4].
Taken in the same sequence, the figures for `c1ccc(Nc2ccc(OCCCN3CCC(c4ccncc4)CC3)cc2)cc1` [Compound 14, N-Phenyl-4-(3-(4-(pyridin-4-yl)piperidin-1-yl)propoxy)aniline Oxalate] were 8.8, 3.3 nM, 29 nM and 69 nM.
Regarding `c1ccc(-c2ccc(OCCCN3CCCC3)cc2)cc1` [Compound 4, 1-(3-([1,1′-Biphenyl]-4-yloxy)propyl)pyrrolidine Oxalate], the σ2/σ1 ratio in the data set on sigma-1 receptor (σ1R) [2] is 2.7. The Ki was 24 nM on sigma-1 receptor (σ1R) [3], 65 nM at sigma-2 receptor (σ2R) and 19.5 nM in data set [4].
On to `Cl.O=C(OCCN1CCOCC1)C1(c2ccccc2)CCCCC1` [PRE-084, 2-[4-morpholinethyl]1-phenylcyclohexanecarboxylate hydrochloride], for which the “reversal of potentiation of loperamide-induced antinociception by S1RA and 12” value in the data set with mice was “markedly reverse the effect of these compounds on loperamide-induced antinociception”.
Turning to `N#Cc1ccc(-c2ccc(OCCCN3CCN(c4ccncc4)CC3)cc2)cc1` [KSK94], in data set [5] (setting [6]), the “pK of equilibrium H2L+2 = H+ + HL+” value came out at 6.25 and the “pK of equilibrium HL+ = H+ + L0” value is recorded as 6.65. In data set [5] (setting [7]), the “free ligand [L]” value is on record as 77.72% and the “monoprotonated form [HL+]” value is 20.56%. Besides, in data set [5] (read-out: pKa1), the pKa was 6.25. The pKa in data set [5] (read-out: pKa2) was roughly 1. The pKa in data set [5] (read-out: pKa3) turned out to be 6.65.
Regarding `OCCCN1CCN(c2ccncc2)CC1` [3-(4-(pyridin-4-yl)piperazin-1-yl)propan-1-ol, reference compound], the pKa amounted to 6.1 in data set [5] (read-out: pKa1), 1 in data set [5] (read-out: pKa2) and 8.82 in data set [5] (read-out: pKa3).
On to `CC(C)(C)c1ccc(OCCCCN2CCN(c3cnccn3)CC2)cc1` [Compound 16, 2-(4-(4-(4-(tert-Butyl)phenoxy)butyl)piperazin-1-yl)pyrazine Oxalate], for which, in the data set on sigma-1 receptor (σ1R) [2], the σ2/σ1 ratio is 3.6. For the same compound, the Ki was found to be 7.6 nM at sigma-1 receptor (σ1R) [3] and 27 nM at sigma-2 receptor (σ2R).
Turning to `OCCCN1CCCCC1` [3-(piperidin-1-yl)propan-1-ol, reference compound], in data set [5] (read-out: pKa), the pKa worked out at 9.73.
With `N#Cc1ccc(-c2ccc(OCCCN3CCCCC3)cc2)cc1.O=C(O)C(=O)O` [Compound 5, 4′-(3-(Piperidin-1-yl)propoxy)-[1,1′-biphenyl]-4-carbonitrile Oxalate], the σ2/σ1 ratio in the data set on sigma-1 receptor (σ1R) [2] amounted to 1.7. For the same compound, the Ki at sigma-1 receptor (σ1R) [3] was found to be 28 nM; at sigma-2 receptor (σ2R) it was 47 nM.
Take `C=CC[N+]1(C)CC[C@]23c4c5ccc(O)c4O[C@H]2C(=O)CC[C@@]3(O)[C@H]1C5` (stereo partly drawn) [naloxone-methiodide]: in the data set with mice, the “reversal of potentiation of loperamide-induced antinociception by S1RA and 12” value is “the effect of S1RA and 12 was also reversed”.
In the case of `c1ccc(Oc2ccc(OCCCN3CCCCC3)cc2)cc1` [Compound 6, 1-(3-(4-Phenoxyphenoxy)propyl)piperidine Oxalate], the σ2/σ1 ratio with sigma-1 receptor (σ1R) [2] was 5.7. Moreover, the Ki at sigma-1 receptor (σ1R) [3] is 18 nM; at sigma-2 receptor (σ2R), 103 nM; in data set [4], 2.7 nM.
In the same order, the values of `CC1CCN(CCCOc2ccc(-c3ccccc3)cc2)CC1` [Compound 2, 1-(3-([1,1′-Biphenyl]-4-yloxy)propyl)-4-methylpiperidine Oxalate] are 6.7, 2.4 nM, 16 nM and 10.3 nM.
In the same order, the values of `c1ccc(Cc2ccc(OCCCN3CCC(c4ccncc4)CC3)cc2)cc1` [Compound 15, 4-(1-(3-(4-Benzylphenoxy)propyl)piperidin-4-yl)pyridine Oxalate] are 3.5, 2.8 nM, 9.9 nM and 76.1 nM.
For `c1ccc(Cc2ccc(OCCCN3CCCCC3)cc2)cc1` [Compound 8, 1-(3-(4-Benzylphenoxy)propyl)piperidine Oxalate], the σ2/σ1 ratio in the data set on sigma-1 receptor (σ1R) [2] stood at 8.5. Further, the values for the inhibition constant Ki on sigma-1 receptor (σ1R) [3] and on sigma-2 receptor (σ2R) were 5.5 nM and 47 nM, respectively.
Regarding `c1ccc(-c2ccc(OCCCCN3CCCCC3)cc2)cc1` [Compound 9, 1-(4-([1,1′-Biphenyl]-4-yloxy)butyl)piperidine Oxalate], the σ2/σ1 ratio with sigma-1 receptor (σ1R) [2] came to 0.3. Further, the Ki at sigma-1 receptor (σ1R) [3] was 95 nM; at sigma-2 receptor (σ2R) it was 33 nM; in data set [4], 22 nM.
Regarding `CN(C)C(=O)C(CCN1CCC(O)(c2ccc(Cl)cc2)CC1)(c1ccccc1)c1ccccc1` [loperamide], the “effect of loperamide alone on struggle response latency” value in the data set with mice (4 mg/kg s.c.) was “minimal (nonsignificant) increase in the struggle response latency”.
For `OCCCN1CCC(c2ccncc2)CC1` [3-(4-(pyridin-4-yl)piperidin-1-yl)propan-1-ol, reference compound], the results for the pKa in data set [5] (read-out: pKa1) and in data set [5] (read-out: pKa2) were 4.91 and 8.84, respectively.
